ChEMBL document CHEMBL1157764, “Conserved high activity binding peptides are involved in adhesion of two detergent-resistant membrane-associated merozoite proteins to red blood cells during invasion” (J Med Chem, 2010)
pKd: −log10 of the molar value. Activity calls are given as the source filed them. The calls are words filed in the database; no cut-off is given here.

Key:
[1] = species: Homo sapiens; assay: Binding affinity to RBC membrane receptor in 1 mg/mL chymotrypsin pretreated human RBCs relative to untreated RBCs
[2] = test system: Plasmodium falciparum; assay: Antiplasmodial activity against Plasmodium falciparum FCB2 assessed as inhibition of merozoite invasion of human RBCs at 200 uM after 18 hrs using hydroethidine staining by flow cytometry; format: functional; conditions: FCB2, 18 h
[3] = Binding affinity to RBC membrane receptor in human RBCs assessed as dissociation constant by gamma counter
[4] = test system: Plasmodium falciparum; assay: Antiplasmodial activity against Plasmodium falciparum FCB2 assessed as inhibition of merozoite invasion of human RBCs at 100 uM after 18 hrs using hydroethidine staining by flow cytometry; format: functional; conditions: FCB2, 18 h
[5] = species: Homo sapiens; assay: Binding affinity to RBC membrane receptor in 1 mg/mL trypsin pretreated human RBCs relative to untreated RBCs
[6] = species: Homo sapiens; assay: Binding affinity to RBC membrane receptor in 150 uU/mL neuraminidase pretreated human RBCs relative to untreated RBCs
[7] = species: Homo sapiens; assay: Binding affinity to RBC membrane receptor in human RBCs assessed as specific binding activity measured as ratio of specifically bound peptide/added peptide by gamma counter
[8] = species: Homo sapiens; assay: Binding affinity of radio labeled compound to 47 kDa RBC membrane receptor in human RBCs cross-linked with bis-(sulfosuccinimidyl)suberate by autoradiography using SDS-PAGE
[9] = species: Homo sapiens; assay: Binding affinity of radio labeled compound to 78 kDa RBC membrane receptor in human RBCs cross-linked with bis-(sulfosuccinimidyl)suberate by autoradiography using SDS-PAGE
[10] = species: Homo sapiens; assay: Binding affinity of radio labeled compound to 85 kDa RBC membrane receptor in human RBCs cross-linked with bis-(sulfosuccinimidyl)suberate by autoradiography using SDS-PAGE
[11] = species: Homo sapiens; assay: Binding affinity of radio labeled compound to 170 kDa RBC membrane receptor in human RBCs cross-linked with bis-(sulfosuccinimidyl)suberate by autoradiography using SDS-PAGE
[12] = species: Homo sapiens; assay: Binding affinity of radio labeled compound to 68 kDa RBC membrane receptor in human RBCs cross-linked with bis-(sulfosuccinimidyl)suberate by autoradiography using SDS-PAGE
[13] = test system: Plasmodium falciparum; assay: Antiplasmodial activity against Plasmodium falciparum FCB2 assessed as inhibition of merozoite invasion of human RBCs at 1.85 mg/mL after 18 hrs using hydroethidine staining by flow cytometry; format: functional; parameters: scale not given: the % may be the effect or the level left
[14] = test system: Plasmodium falciparum; assay: Antiplasmodial activity against Plasmodium falciparum FCB2 assessed as inhibition of merozoite invasion of human RBCs at 1.9 mg/mL after 18 hrs using hydroethidine staining by flow cytometry; format: functional; parameters: scale not given: the % may be the effect or the level left

| Molecule | Activity [1] | inhibition at 200 µM [2] | pKd [3] | inhibition at 100 µM [4] | Activity [5] | Activity [6] | Activity [7] | Activity [8] | Activity [9] | Activity [10] | Activity [11] | Activity [12] | Activity [13] | Activity [14] |
| --- | --- | --- | --- | --- | --- | --- | --- | --- | --- | --- | --- | --- | --- | --- |
| CC[C@H](C)[C@H](NC(=O)[C@H](CCCCN)NC(=O)CNC(=O)CNC(=O)[C@H](Cc1ccc(O)cc1)NC(=O)[C@H](CC(=O)O)NC(=O)[C@H](CO)NC(=O)[C@H](CC(C)C)NC(=O)[C@@H](N)CCCNC(=N)N)C(=O)N[C@@H](CC(C)C)C(=O)N[C@H](C(=O)N[C@@H](CCCCN)C(=O)NCC(=O)N[C@H](C(=O)N[C@@H](CC(N)=O)C(=O)N[C@@H](C)C(=O)N[C@@H](CCC(N)=O)C(=O)N[C@@H](CC(N)=O)C(=O)N[C@H](C(=O)N[C@@H](CC(C)C)C(=O)O)[C@H](C)O)[C@@H](C)O)C(C)C | 79% | 9% | 6.05 | 34% | 11% | 67% | > 2% |  |  |  |  |  |  |  |
| CC(C)C[C@H](NC(=O)[C@H](CCCCN)NC(=O)[C@H](Cc1ccc(O)cc1)NC(=O)[C@H](CC(C)C)NC(=O)CNC(=O)[C@H](CC(=O)O)NC(=O)[C@H](CO)NC(=O)[C@H](CO)NC(=O)[C@H](Cc1ccc(O)cc1)NC(=O)[C@H](CCCCN)NC(=O)[C@H](CC(C)C)NC(=O)[C@H](Cc1cnc[nH]1)NC(=O)[C@H](CO)NC(=O)[C@H](CO)NC(=O)[C@@H]1CCCN1C(=O)[C@@H](NC(=O)[C@H](CCCCN)NC(=O)[C@H](CS)NC(=O)[C@@H](NC(=O)[C@@H](N)CCCCN)[C@H](C)O)C(C)C)C(=O)O | 37% | 13% | 6.60 | 45% | 55% | 23% | > 2% |  |  |  |  |  |  |  |
| CC[C@H](C)[C@H](NC(=O)[C@H](Cc1cnc[nH]1)NC(=O)[C@H](CC(N)=O)NC(=O)[C@H](CCCNC(=N)N)NC(=O)[C@@H](NC(=O)[C@@H](N)Cc1ccc(O)cc1)[C@@H](C)CC)C(=O)N[C@@H](CC(=O)O)C(=O)N[C@@H](CC(C)C)C(=O)N[C@@H](CC(=O)O)C(=O)N[C@@H](Cc1ccccc1)C(=O)N1CCC[C@H]1C(=O)N[C@@H](Cc1ccccc1)C(=O)N[C@@H](CC(=O)O)C(=O)N[C@H](C(=O)N[C@@H](CC(=O)O)C(=O)N[C@H](C(=O)N[C@H](C(=O)N[C@@H](CCCCN)C(=O)N[C@@H](CC(C)C)C(=O)N[C@@H](Cc1ccc(O)cc1)C(=O)O)C(C)C)[C@H](C)O)[C@H](C)O | 90% | -3% | 6.10 | 76% | 29% | 120% | > 2% | Active | Active | Active | Active | Active |  |  |
| CC[C@H](C)[C@H](NC(=O)[C@H](CCCNC(=N)N)NC(=O)[C@H](CCC(=O)O)NC(=O)[C@H](Cc1cnc[nH]1)NC(=O)[C@@H](NC(=O)[C@H](CC(C)C)NC(=O)[C@H](Cc1c[nH]c2ccccc12)NC(=O)[C@H](CCCCN)NC(=O)[C@H](CCCCN)NC(=O)[C@H](CCCCN)NC(=O)[C@H](CCCCN)NC(=O)[C@H](CC(N)=O)NC(=O)[C@H](C)NC(=O)[C@H](CC(=O)O)NC(=O)[C@@H](N)C(C)C)[C@@H](C)O)C(=O)N[C@@H](CC(C)C)C(=O)N[C@@H](CCCCN)C(=O)N[C@@H](CCCCN)C(=O)N[C@@H](CC(C)C)C(=O)N[C@@H](CCC(N)=O)C(=O)N[C@@H](Cc1ccc(O)cc1)C(=O)O | 87% | 11% | 6.29 | 37% | 50% | 25% | > 2% |  | Active | Active |  |  |  |  |
| CCN(CC)CCCC(C)Nc1ccnc2cc(Cl)ccc12 (centres undefined) [CHLOROQUINE] |  |  |  |  |  |  |  |  |  |  |  |  | 68% |  |
| O=C(O)CN(CCOCCOCCN(CC(=O)O)CC(=O)O)CC(=O)O [EGTAZIC ACID] |  |  |  |  |  |  |  |  |  |  |  |  |  | 81% |
| H-ASLKETMNKIDTIEKKIEEFY-OH | 33% | 8% | 5.92 | 40% | 87% | 12% | > 2% |  | Active | Active |  |  |  |  |
| H-DNNKECLIDPLDVQKNLLNEY-OH | 59% | 4% | 6.10 | 36% | 105% | 13% | > 2% |  | Active | Active |  |  |  |  |
| H-FVLAPDEMVYLFYHGNEKKN-OH | 116% | 9% | 6.07 | 49% | 31% | 5% | > 2% |  |  |  |  |  |  |  |
| H-NYRRRKRITELRKILVEKLR-OH | 7% | 15% | 5.77 | 47% | 43% | 68% | > 2% |  | Active | Active |  |  |  |  |
| H-RLKENKDYDVVSSIIQHLDN-OH | 94% | 7% | 6.14 | 42% | 18% | 55% | > 2% |  | Active | Active |  |  |  |  |
| H-YFFEYELRKKTQSFRNKNSI-OH | 31% | 10% | 6.05 | 40% | 83% | 17% | > 2% |  | Active | Active |  |  |  |  |
